Source: PubChem BioAssay AID1963854 (Molecular Pharmacology Branch, DTP, NCI, 2024)

System: 186277-243-T-J2-PDC complex spheroid viability
Assay: Anticancer human tumor 186277-243-T-J2-PDC patient-derived colon adenocarcinoma cell line growth inhibition [POLQ]
Settings: for IC50: curve of first compound; for viability, T/C: stronger effect = lower value; active = viability on the fitted dose curve at most 10% of control; inactive = the rest
Procedure, shortened: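 Three-cell-type spheroids modelling solid tumor plus stroma served as the readout system; POL inhibitors were tested individually and in combination, concentration ranges set by clinical Cmax where known.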

[1] = second compound 0.0316 µM, first compound 0.0316 µM
[2] = second compound 0.0316 µM, first compound 0.1 µM
[3] = second compound 0.0316 µM, first compound 0.316 µM
[4] = second compound 0.0316 µM, first compound 1 µM
[5] = second compound 0.0316 µM, first compound 3.16 µM
[6] = second compound 0.0316 µM, first compound 10 µM
[7] = second compound 0.1 µM, first compound 0.0316 µM
[8] = second compound 0.1 µM, first compound 0.1 µM
[9] = second compound 0.1 µM, first compound 0.316 µM
[10] = second compound 0.1 µM, first compound 1 µM
[11] = second compound 0.1 µM, first compound 3.16 µM
[12] = second compound 0.1 µM, first compound 10 µM
[13] = second compound 0.316 µM, first compound 0.0316 µM
[14] = second compound 0.316 µM, first compound 0.1 µM
[15] = second compound 0.316 µM, first compound 0.316 µM
[16] = second compound 0.316 µM, first compound 1 µM
[17] = second compound 0.316 µM, first compound 3.16 µM
[18] = second compound 0.316 µM, first compound 10 µM
[19] = second compound 1 µM, first compound 0.0316 µM
[20] = second compound 1 µM, first compound 0.1 µM
[21] = second compound 1 µM, first compound 0.316 µM
[22] = second compound 1 µM, first compound 1 µM
[23] = second compound 1 µM, first compound 3.16 µM
[24] = second compound 1 µM, first compound 10 µM
[25] = second compound 3.16 µM, first compound 0.0316 µM
[26] = second compound 3.16 µM, first compound 0.1 µM
[27] = second compound 3.16 µM, first compound 0.316 µM
[28] = second compound 3.16 µM, first compound 1 µM
[29] = second compound 3.16 µM, first compound 3.16 µM
[30] = second compound 3.16 µM, first compound 10 µM
[31] = second compound 10 µM, first compound 0.0316 µM
[32] = second compound 10 µM, first compound 0.1 µM
[33] = second compound 10 µM, first compound 0.316 µM
[34] = second compound 10 µM, first compound 1 µM
[35] = second compound 10 µM, first compound 3.16 µM
[36] = second compound 10 µM, first compound 10 µM
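Also: spheroids exposed to compounds for seven days.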
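For viability, T/C in this document: 100% = DMSO vehicle control viability.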

CC1COCCN1c1cc(C2(S(C)(=N)=O)CC2)nc(-c2ccnc3[nH]ccc23)n1 (centres undefined) + Cc1cccc(N(C)C(=O)C2C(O)CCN2c2nc(C)cc(C(F)(F)F)c2C#N)c1
861 nM: IC50 (second compound 0.0316 µM)
842 nM: IC50 (second compound 1 µM)
799 nM: IC50 (second compound 3.16 µM)
800 nM: IC50 (second compound 0.1 µM)
inactive: viability, T/C [1] 102% | viability, T/C [2] 102% | viability, T/C [3] 99% | viability, T/C [4] 42.6% | viability, T/C [7] 99.1% | viability, T/C [8] 103% | viability, T/C [9] 109% | viability, T/C [10] 37.1% | viability, T/C [13] 117% | viability, T/C [14] 105% | viability, T/C [15] 103% | viability, T/C [16] 39.6% | viability, T/C [19] 97% | viability, T/C [20] 104% | viability, T/C [21] 107% | viability, T/C [22] 40.7% | viability, T/C [25] 108% | viability, T/C [26] 108% | viability, T/C [27] 106% | viability, T/C [28] 35.9% | viability, T/C [31] 102% | viability, T/C [32] 111% | viability, T/C [33] 108% | viability, T/C [34] 34.7%
active: viability, T/C [5] 8.14% | viability, T/C [6] 6.1% | viability, T/C [11] 8.3% | viability, T/C [12] 5.32% | viability, T/C [17] 7.67% | viability, T/C [18] 6.8% | viability, T/C [23] 7.51% | viability, T/C [24] 5.6% | viability, T/C [29] 8.67% | viability, T/C [30] 6.42% | viability, T/C [35] 7.11% | viability, T/C [36] 5.36%
827 nM: IC50 (second compound 0.316 µM)
784 nM: IC50 (second compound 10 µM)

CC1COCCN1c1cc(C2(O)CC3CCC(C2)O3)c2cnn(-c3ccn[nH]3)c2n1 (centres undefined) + Nc1ccc(C#CCN(C(=O)Cc2ncc(C(F)(F)F)cc2C(F)(F)F)c2ccc(F)cc2)nn1
inactive: viability, T/C [1] 107% | viability, T/C [2] 19.5% | viability, T/C [7] 113% | viability, T/C [8] 20.2% | viability, T/C [13] 116% | viability, T/C [14] 22.6% | viability, T/C [19] 109% | viability, T/C [20] 17.5% | viability, T/C [25] 102% | viability, T/C [26] 17.9% | viability, T/C [31] 85.1% | viability, T/C [32] 12.7%
69 nM: IC50 (second compound 0.1 µM)
66.4 nM: IC50 (second compound 1 µM)
64.4 nM: IC50 (second compound 3.16 µM)
67.1 nM: IC50 (second compound 0.0316 µM)
55.2 nM: IC50 (second compound 10 µM)
active: viability, T/C [3] 9.32% | viability, T/C [4] 6.59% | viability, T/C [5] 9.6% | viability, T/C [6] 7.56% | viability, T/C [9] 8.44% | viability, T/C [10] 6.39% | viability, T/C [11] 8.6% | viability, T/C [12] 8.62% | viability, T/C [15] 8.74% | viability, T/C [16] 6.2% | viability, T/C [17] 8.36% | viability, T/C [18] 8.22% | viability, T/C [21] 8.98% | viability, T/C [22] 6.1% | viability, T/C [23] 8.12% | viability, T/C [24] 7.01% | viability, T/C [27] 8.53% | viability, T/C [28] 7.23% | viability, T/C [29] 8.02% | viability, T/C [30] 9.12% | viability, T/C [33] 8.17% | viability, T/C [34] 5.8% | viability, T/C [35] 8.58% | viability, T/C [36] 6.5%
71.3 nM: IC50 (second compound 0.316 µM)
